Biological target: T1, human DGAT2 (Homo sapiens, UniProt Q96PD7)
T1 construct: made in house; host or cells: Sf-9 insect cells (baculovirus), membrane fraction
T1 sequence (Q96PD7 1-388): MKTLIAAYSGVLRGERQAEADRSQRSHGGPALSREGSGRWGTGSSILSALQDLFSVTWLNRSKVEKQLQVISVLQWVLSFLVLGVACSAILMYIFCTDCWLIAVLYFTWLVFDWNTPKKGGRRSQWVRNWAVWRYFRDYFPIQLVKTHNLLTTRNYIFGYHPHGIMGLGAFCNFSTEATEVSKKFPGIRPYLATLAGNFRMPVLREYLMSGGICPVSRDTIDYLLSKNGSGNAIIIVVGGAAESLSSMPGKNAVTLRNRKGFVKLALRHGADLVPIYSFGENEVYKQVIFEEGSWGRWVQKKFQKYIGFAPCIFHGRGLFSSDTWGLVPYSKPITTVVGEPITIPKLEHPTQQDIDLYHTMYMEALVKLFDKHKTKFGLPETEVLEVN
Assay: DGAT2 Enzymatic Activity Assay
Type: biochemical
Conditions: membrane prep of Sf-9 insect cells expressing hDGAT2; 13C18-triolein product by LC/MS/MS; 25 μM diolein, 5 μM 13C oleoyl-CoA
Experimental: Sf-9 insect cells were maintained in Grace's insect cell culture medium with 10% heated-inactivated fetal bovine serum, 1% Pluronic F-68 and 0.14 μg/ml Kanamycine sulfate at 27° C. in a shaker incubator. After infection with untagged baculovirus expressing human DGAT2 (hDGAT2) at multiplicity of infection (MOI) 3 for 48 hours, cells were harvested. Cell pellets were suspended in buffer containing 10 mM Tris-HCl pH 7.5, 1 mM EDTA, 250 mM sucrose and Complete Protease Inhibitor Cocktail (Sigma Aldrich), and sonicated on ice. Cell debris were removed by centrifugation at 2000×g for 15 minutes. Membrane fractions were isolated by ultracentrifugation (100,000×g), resuspended in the same buffer, and frozen (−80° C.) for later use. The protein concentration was determined with the Pierce™ BCA Protein Assay Kit (Thermo Fisher Scientific).
LC/MS/MS analyses were performed using Thermal Fisher's LX4-TSQ Vantage system. This system consists of an Agilent binary high-performance liquid chromatography (HPLC) pump and a TSQ Vantage triple quadrupole MS/MS instrument. For each sample, 2 μL samples from the top organic layer of in-plate liquid-liquid extraction were injected onto a Thermo Betabasic C4 column (2.1 mm×20 mm, 5 μm particle size). The samples were then eluted using the following conditions; mobile phase: Isopropanol:acetonitrile/10 mM ammonium formate=50/35/15 (v/v/v), flow rate: 0.8 mL/min, temperature: 25° C. Data was acquired in positive mode using a heated electrospray ionization (HESI) interface. […] The peak area was integrated by Xcalibur Quan software. The ratio between the ^13C18triolein generated in the reaction and spiked in internal standard ^13C21-triolein was used to generate percentage inhibition and IC50 values. Compound percentage inhibition was calculated by the following formula: Inhibition %=1−[(compound response−low control)/(high control−low control)]×100%.
DGAT2 activity was determined by measuring the amount of enzymatic product ^13C18-triolein (^13C-1,2,3-Tri(cis-9-octadecenoyl)glycerol) using the membrane prep mentioned above. The assay was carried out in ABgene 384-well assay plates in a final volume of 25 μL at rt.

IC50 [µM] | Compound
0.01 | CC1(NC(=O)c2nn3ccc(Oc4nccnc4OCC(F)F)cc3c2F)CCS(=O)(=O)CC1 [Example 32, 5-((3-(2,2-Difluoroethoxy)pyrazin-2-yl)oxy)-3-fluoro-N-(4-methyl-1,1-dioxidotetrahydro-2H-thiopyran-4-yl)pyrazolo[1,5-a]pyridine-2-carboxamide]
0.0088 | CC1(NC(=O)c2nn3ccc(Oc4ncc(F)cc4OCC(F)(F)F)c(Cl)c3c2Cl)CCS(=O)(=O)CC1 [Example 33, 3,4-Dichloro-5-((5-fluoro-3-(2,2,2-trifluoroethoxy)pyridin-2-yl)oxy)-N-(4-methyl-1,1-dioxidotetrahydro-2H-thiopyran-4-yl)pyrazolo[1,5-a]pyridine-2-carboxamide]
0.0073 | CC1(NC(=O)c2nn3ccc(Oc4ncc(F)cc4OCC(F)(F)F)cc3c2Cl)CCS(=O)(=O)CC1 [Example 34, 3-Chloro-5-((5-fluoro-3-(2,2,2-trifluoroethoxy)pyridin-2-yl)oxy)-N-(4-methyl-1,1-dioxidotetrahydro-2H-thiopyran-4-yl)pyrazolo[1,5-a]pyridine-2-carboxamide]
0.018 | CC1(NC(=O)c2nn3ccc(Oc4nccnc4OCC(F)(F)F)cc3c2Cl)CCS(=O)(=O)CC1 [Example 35, 3-Chloro-N-(4-methyl-1,1-dioxidotetrahydro-2H-thiopyran-4-yl)-5-((3-(2,2,2-trifluoroethoxy)pyrazin-2-yl)oxy)pyrazolo[1,5-a]pyridine-2-carboxamide]
0.0073 | CC1(NC(=O)c2nn3ccc(Oc4ncc(F)cc4OCC(F)(F)F)cc3c2F)CCS(=O)(=O)CC1 [Example 36, 3-Fluoro-5-((5-fluoro-3-(2,2,2-trifluoroethoxy)pyridin-2-yl)oxy)-N-(4-methyl-1,1-dioxidotetrahydro-2H-thiopyran-4-yl)pyrazolo[1,5-a]pyridine-2-carboxamide]
0.0077 | CC1(NC(=O)c2nn3ccc(Oc4ncc(Cl)cc4OCC(F)(F)F)cc3c2F)CS(=O)(=O)C1 [Example 37, 5-((5-Chloro-3-(2,2,2-trifluoroethoxy)pyridin-2-yl)oxy)-3-fluoro-N-(3-methyl-1,1-dioxidothietan-3-yl)pyrazolo[1,5-a]pyridine-2-carboxamide]
0.005 | CC1(NC(=O)c2nn3ccc(Oc4ncc(C#N)cc4OCC(F)(F)F)cc3c2Cl)CCS(=O)(=O)CC1 [Example 41, 3-Chloro-5-((5-cyano-3-(2,2,2-trifluoroethoxy)pyridin-2-yl)oxy)-N-(4-methyl-1,1-dioxidotetrahydro-2H-thiopyran-4-yl)pyrazolo[1,5-a]pyridine-2-carboxamide]
0.02 | CC1(NC(=O)c2cc3cc(Oc4ncc(C#N)cc4OCC(F)(F)F)ccn3n2)CCS(=O)(=O)CC1 [Example 42, 5-((5-Cyano-3-(2,2,2-trifluoroethoxy)pyridin-2-yl)oxy)-N-(4-methyl-1,1-dioxidotetrahydro-2H-thiopyran-4-yl)pyrazolo[1,5-a]pyridine-2-carboxamide]

More lines, now with the values behind:

Compound | IC50 [µM]
CC1(NC(=O)c2cc3cc(Oc4ncc(F)cc4OCC(F)(F)F)ccn3n2)CS(=O)(=O)C1 [Example 17, 5-((5-Fluoro-3-(2,2,2-trifluoroethoxy)pyridin-2-yl)oxy)-N-(3-methyl-1,1-dioxidothietan-3-yl)pyrazolo[1,5-a]pyridine-2-carboxamide] | 0.072
C[C@@]1(NC(=O)c2cc3cc(Oc4ncc(F)cc4OCC(F)(F)F)ccn3n2)CCS(=O)(=O)C1 [Example 18, (R)-5-((5-Fluoro-3-(2,2,2-trifluoroethoxy)pyridin-2-yl)oxy)-N-(3-methyl-1,1-dioxidotetrahydrothiophen-3-yl)pyrazolo[1,5-a]pyridine-2-carboxamide] | 0.033
Cc1c(C(=O)NC2(C)CCS(=O)(=O)CC2)nn2ccc(Oc3ncccc3OCC(F)(F)F)cc12 [Example 19, 3-Methyl-N-(4-methyl-1,1-dioxidotetrahydro-2H-thiopyran-4-yl)-5-((3-(2,2,2-trifluoroethoxy)pyridin-2-yl)oxy)pyrazolo[1,5-a]pyridine-2-carboxamide] | 0.0072
Cc1c(C(=O)NC2(C)CS(=O)(=O)C2)nn2ccc(Oc3ncccc3OCC(F)(F)F)cc12 [Example 20, 3-Methyl-N-(3-methyl-1,1-dioxidothietan-3-yl)-5-((3-(2,2,2-trifluoroethoxy)pyridin-2-yl)oxy)pyrazolo[1,5-a]pyridine-2-carboxamide] | 0.171
CC1(NC(=O)c2nn3ccc(Oc4ncccc4OCC(F)(F)F)cc3c2F)CS(=O)(=O)C1 [Example 22, 3-Fluoro-N-(3-methyl-1,1-dioxidothietan-3-yl)-5-((3-(2,2,2-trifluoroethoxy)pyridin-2-yl)oxy)pyrazolo[1,5-a]pyridine-2-carboxamide] | 0.372
C[C@@]1(NC(=O)c2nn3ccc(Oc4ncccc4OCC(F)(F)F)cc3c2F)CCS(=O)(=O)C1 [Example 23, (R)-3-Fluoro-N-(3-methyl-1,1-dioxidotetrahydrothiophen-3-yl)-5-((3-(2,2,2-trifluoroethoxy)pyridin-2-yl)oxy)pyrazolo[1,5-a]pyridine-2-carboxamide] | 0.817
CC1(NC(=O)c2nn3ccc(Oc4ncccc4OCC(F)(F)F)cc3c2Cl)CS(=O)(=O)C1 [Example 25, 3-Chloro-N-(3-methyl-1,1-dioxidothietan-3-yl)-5-((3-(2,2,2-trifluoroethoxy)pyridin-2-yl)oxy)pyrazolo[1,5-a]pyridine-2-carboxamide] | 0.03
C[C@@]1(NC(=O)c2nn3ccc(Oc4ncccc4OCC(F)(F)F)cc3c2Cl)CCS(=O)(=O)C1 [Example 26, (R)-3-Chloro-N-(3-methyl-1,1-dioxidotetrahydrothiophen-3-yl)-5-((3-(2,2,2-trifluoroethoxy)pyridin-2-yl)oxy)pyrazolo[1,5-a]pyridine-2-carboxamide] | 0.388
C[C@]1(NC(=O)c2nn3ccc(Oc4ncccc4OCC(F)(F)F)cc3c2Cl)CCS(=O)(=O)C1 [Example 27, (S)-3-Chloro-N-(3-methyl-1,1-dioxidotetrahydrothiophen-3-yl)-5-((3-(2,2,2-trifluoroethoxy)pyridin-2-yl)oxy)pyrazolo[1,5-a]pyridine-2-carboxamide] | 0.4
CC1(NC(=O)c2nn3ccc(Oc4ncc(F)cc4OCC(F)(F)F)cc3c2F)CS(=O)(=O)C1 [Example 28, 3-Fluoro-5-((5-fluoro-3-(2,2,2-trifluoroethoxy)pyridin-2-yl)oxy)-N-(3-methyl-1,1-dioxidothietan-3-yl)pyrazolo[1,5-a]pyridine-2-carboxamide] | 0.129
C[C@@]1(NC(=O)c2nn3ccc(Oc4ncc(F)cc4OCC(F)(F)F)cc3c2F)CCS(=O)(=O)C1 [Example 29, (R)-3-Fluoro-5-((5-fluoro-3-(2,2,2-trifluoroethoxy)pyridin-2-yl)oxy)-N-(3-methyl-1,1-dioxidotetrahydrothiophen-3-yl)pyrazolo[1,5-a]pyridine-2-carboxamide] | 0.277
CC1(NC(=O)c2nn3ccc(Oc4nccnc4OCC(F)F)cc3c2Cl)CS(=O)(=O)C1 [Example 30, 3-Chloro-5-((3-(2,2-difluoroethoxy)pyrazin-2-yl)oxy)-N-(3-methyl-1,1-dioxidothietan-3-yl)pyrazolo[1,5-a]pyridine-2-carboxamide] | 0.078
CC1(NC(=O)c2nn3ccc(Oc4nccnc4OCC(F)F)cc3c2F)CS(=O)(=O)C1 [Example 31, 5-((3-(2,2-Difluoroethoxy)pyrazin-2-yl)oxy)-3-fluoro-N-(3-methyl-1,1-dioxidothietan-3-yl)pyrazolo[1,5-a]pyridine-2-carboxamide] | 0.194

Reference: patent US20260193249A1, “PREPARATION OF PYRAZOLOPYRIDINE AND TRIAZOLOPYRIDINE DERIVATIVES AS NOVEL DIACYLGLYCERIDE O-ACYLTRANSFERASE 2 INHIBITORS” (Merck Sharp & Dohme LLC, priority 2022, published 2026)
